Key:
[1] = refractive index (Na D-line) (dimensionless); details: 298.15 K; 101.33 kPa; Liquid; Standard Abbe refractometry
[2] = 298.15 K; 101.33 kPa; Liquid
[3] = xn = mol fraction of the nth substance listed; details: 298.15 K, 101 kPa, Liquid
[4] = refractive index (Na D-line) (dimensionless); xn = mol fraction of the nth substance listed; details: 298.15 K, 101 kPa, Liquid, Standard Abbe refractometry

OCCO [1,2-ethanediol]
Details	refractive index
[1]	1.4304

ClCCCCl [1,3-dichloropropane]
Details	mass density [kg/m3]	refractive index
[1]	–	1.446
[2]	1179.1	–

ClCCCCl [1,3-dichloropropane] + CCCCn1cc[n+](C)c1.COS(=O)(=O)[O-]
Details	mass density, [3] [kg/m3]	refractive index, [4]
x2 = 0.0429	1183.63	1.4499
x2 = 0.0674	1185.62	1.4518
x2 = 0.104	1188.24	1.4543
x2 = 0.1376	1190.37	1.4564
x2 = 0.1894	1193.17	1.4596
x2 = 0.2496	1195.76	1.4624
x2 = 0.3166	1198.02	1.4654
x2 = 0.3917	1200.02	1.4677
x2 = 0.4881	1201.98	1.4706
x2 = 0.5686	1203.19	1.4725
x2 = 0.6797	1204.61	1.4747
x2 = 0.7887	1205.73	1.4765
x2 = 0.8987	1206.82	1.4784

ClCCCCl [1,3-dichloropropane] + CCCCn1cc[n+](C)c1.F[B-](F)(F)F
Details	mass density, [3] [kg/m3]	refractive index, [4]
x2 = 0.0536	1184.13	1.4448
x2 = 0.1135	1187.8	1.443
x2 = 0.1516	1189.78	1.4418
x2 = 0.2101	1192.32	1.4401
x2 = 0.2817	1194.71	1.4381
x2 = 0.3528	1196.53	1.4359
x2 = 0.4042	1197.51	1.4345
x2 = 0.4626	1198.41	1.433
x2 = 0.5254	1199.14	1.4314
x2 = 0.5466	1199.38	1.4309
x2 = 0.5955	1199.76	1.4296
x2 = 0.6786	1200.34	1.4276
x2 = 0.7863	1200.89	1.4255
x2 = 0.9028	1201.2	1.4234

CCCCn1cc[n+](C)c1.COS(=O)(=O)[O-] [1-butyl-3-methylimidazolium methyl sulfate]
Details	mass density [kg/m3]	refractive index
[1]	–	1.4794
[2]	1207.75	–

CCCCn1cc[n+](C)c1.COS(=O)(=O)[O-] [1-butyl-3-methylimidazolium methyl sulfate] + CCO
Details	mass density, [3] [kg/m3]	refractive index, [4]
x1 = 0.0459	850.62	1.3791
x1 = 0.0987	909.24	1.3956
x1 = 0.142	948.07	1.4067
x1 = 0.1905	984.34	1.417
x1 = 0.2357	1012.98	1.4253
x1 = 0.2733	1033.54	1.4314
x1 = 0.3516	1069.63	1.4414
x1 = 0.4381	1101.3	1.4503
x1 = 0.5335	1129.08	1.4581
x1 = 0.5712	1138.45	1.4609
x1 = 0.6742	1160.39	1.4667
x1 = 0.7665	1176.77	1.4715
x1 = 0.8482	1188.91	1.4745
x1 = 0.9248	1199.03	1.4772

CCCCn1cc[n+](C)c1.COS(=O)(=O)[O-] [1-butyl-3-methylimidazolium methyl sulfate] + C[N+](=O)[O-]
Details	mass density, [3] [kg/m3]	refractive index, [4]
x1 = 0.0398	1146.67	1.3953
x1 = 0.1021	1161.66	1.4128
x1 = 0.1433	1168.87	1.4218
x1 = 0.1988	1176.21	1.4316
x1 = 0.2444	1180.95	1.4382
x1 = 0.2998	1185.58	1.4449
x1 = 0.3979	1191.69	1.4541
x1 = 0.4786	1195.47	1.4596
x1 = 0.5652	1198.52	1.4648
x1 = 0.7127	1202.66	1.4714
x1 = 0.8212	1204.74	1.4748
x1 = 0.8546	1205.4	1.4758

CCCCn1cc[n+](C)c1.COS(=O)(=O)[O-] [1-butyl-3-methylimidazolium methyl sulfate] + OCCO
Details	mass density, [3] [kg/m3]	refractive index, [4]
x1 = 0.0341	1195.09	1.4334
x1 = 0.0854	1115.82	1.4373
x1 = 0.1079	1172.89	1.439
x1 = 0.1946	1123.61	1.4449
x1 = 0.2446	1170.78	1.4479
x1 = 0.2999	1126.01	1.4511
x1 = 0.353	1164.56	1.454
x1 = 0.4399	1138.05	1.4582
x1 = 0.5061	1150.15	1.4616
x1 = 0.5299	1188.48	1.4625
x1 = 0.636	1143.98	1.4672
x1 = 0.717	1155.76	1.4703
x1 = 0.8055	1182.08	1.4735
x1 = 0.907	1201.87	1.4768

CCCCn1cc[n+](C)c1.F[B-](F)(F)F [1-butyl-3-methylimidazolium tetrafluoroborate]
Details	mass density [kg/m3]	refractive index
[1]	–	1.4219
[2]	1201.41	–

CCCCn1cc[n+](C)c1.F[B-](F)(F)F [1-butyl-3-methylimidazolium tetrafluoroborate] + CCO
Details	mass density, [3] [kg/m3]	refractive index, [4]
x1 = 0.0517	850.45	1.3703
x1 = 0.0918	891.63	1.3767
x1 = 0.1995	976.13	1.3898
x1 = 0.2495	1007.41	1.3943
x1 = 0.2518	1042.9	1.3946
x1 = 0.3228	1081.97	1.3998
x1 = 0.4219	1117.11	1.4058
x1 = 0.5356	1138.94	1.4105
x1 = 0.6244	1156.56	1.4137
x1 = 0.709	1177.74	1.4161
x1 = 0.8295	1192.74	1.4188

CCCCn1cc[n+](C)c1.F[B-](F)(F)F [1-butyl-3-methylimidazolium tetrafluoroborate] + OCCO
Details	mass density, [3] [kg/m3]	refractive index, [4]
x1 = 0.0517	1123.11	1.4287
x1 = 0.138	1138.78	1.4261
x1 = 0.1928	1146.51	1.425
x1 = 0.2567	1154.22	1.424
x1 = 0.3	1158.72	1.4235
x1 = 0.3324	1161.86	1.4231
x1 = 0.402	1167.89	1.4226
x1 = 0.4162	1168.98	1.4225
x1 = 0.4997	1175.1	1.4219
x1 = 0.5803	1180.22	1.4216
x1 = 0.632	1183.29	1.4215
x1 = 0.696	1186.82	1.4215
x1 = 0.8045	1192.48	1.4215
x1 = 0.9083	1197.33	1.4217

CCOCCOCCO [3,6-dioxa-1-octanol]
Details	mass density [kg/m3]	refractive index
[1]	–	1.4253
[2]	983.68	–

CCOCCOCCO [3,6-dioxa-1-octanol] + CCCCn1cc[n+](C)c1.COS(=O)(=O)[O-]
Details	mass density, [3] [kg/m3]	refractive index, [4]
x2 = 0.0517	1003.36	1.4307
x2 = 0.0891	1016.08	1.4339
x2 = 0.1483	1035.02	1.4388
x2 = 0.2233	1057.1	1.4443
x2 = 0.2901	1074.98	1.4488
x2 = 0.3194	1082.5	1.4507
x2 = 0.3902	1099.82	1.4548
x2 = 0.4732	1118.6	1.4593
x2 = 0.5364	1131.83	1.4626
x2 = 0.6235	1148.55	1.4663
x2 = 0.696	1161.73	1.4697
x2 = 0.8065	1179.9	1.4735
x2 = 0.8947	1193.18	1.4763

CCOCCOCCO [3,6-dioxa-1-octanol] + CCCCn1cc[n+](C)c1.F[B-](F)(F)F
Details	mass density, [3] [kg/m3]	refractive index, [4]
x2 = 0.0544	1003.36	1.4268
x2 = 0.1016	1018.2	1.4274
x2 = 0.1492	1032.87	1.4277
x2 = 0.1941	1045.1	1.4278
x2 = 0.2686	1065.22	1.4278
x2 = 0.3215	1078.37	1.4277
x2 = 0.3932	1094.93	1.4273
x2 = 0.5108	1119.82	1.4265
x2 = 0.6016	1137.49	1.4257
x2 = 0.6657	1149.16	1.425
x2 = 0.6998	1155.07	1.4247
x2 = 0.8304	1176.5	1.4235
x2 = 0.9551	1195.04	1.4223

CCO [ethanol]
Details	mass density [kg/m3]	refractive index
[1]	–	1.3593
[2]	785.18	–

C[N+](=O)[O-] [nitromethane]
Details	mass density [kg/m3]	refractive index
[1]	–	1.3796
[2]	1131.17	–

C[N+](=O)[O-] [nitromethane] + CCCCn1cc[n+](C)c1.F[B-](F)(F)F
Details	mass density, [3] [kg/m3]	refractive index, [4]
x2 = 0.0512	1148.18	1.3889
x2 = 0.0991	1158.64	1.3952
x2 = 0.1392	1165.19	1.399
x2 = 0.2026	1173.12	1.4038
x2 = 0.2986	1181.43	1.4089
x2 = 0.3565	1185.14	1.4112
x2 = 0.3972	1187.27	1.4125
x2 = 0.4553	1189.89	1.4142
x2 = 0.5231	1192.3	1.4158
x2 = 0.5949	1194.48	1.4172
x2 = 0.6863	1196.69	1.4188
x2 = 0.8073	1198.86	1.4202
x2 = 0.8634	1199.69	1.4207
